Values of other authors, collected in patent US20080300217A1, “Combination Therapy with Fumaric Acid Esters for the Treatment of Autoimmune and/or Inflammatory Disorders” (ADITECH PHARMA AB, priority 2005, published 2008).

Conditions: pentoxifylline added to the standard Fumaderm treatment; psoriasis patients

CC(=O)CCCCn1c(=O)c2c(ncn2C)n(C)c1=O [pentoxifylline]
flush symptoms in patients: reduced the flush symptoms in patients
